# How the values were obtained:
# [1] = molecular target: Cholecystokinin receptor type A (Homo sapiens) (UniProt P32238); experiment: CCKA (h) (CCK1) CEREP ligand profiling; conditions: Compound concentration 10.0 uM
# CYP2D6 = CYP2D6 (Homo sapiens, UniProt P10635); experiment: CYP2D6 inhibition CEREP ligand profiling; conditions: compound concentration 10 uM
# [2] = molecular target: Growth hormone secretagogue receptor type 1 (Homo sapiens) (UniProt Q92847); experiment: Ghrelin (h) (GHS) CEREP ligand profiling; conditions: Compound concentration 10.0 uM
# [3] = molecular target: Calcium/calmodulin-dependent protein kinase type IV (Homo sapiens) (UniProt Q16566); conditions: Compound concentration 1000.0 nM
# [4] = molecular target: Serine/threonine-protein kinase WNK4 (Homo sapiens) (UniProt Q96J92); conditions: Compound concentration 1000.0 nM
# [5] = molecular target: Receptor-interacting serine/threonine-protein kinase 4 (Homo sapiens) (UniProt P57078); conditions: Compound concentration 1000.0 nM
# [6] = molecular target: Dual specificity protein kinase CLK1 (Homo sapiens) (UniProt P49759); conditions: Compound concentration 1000.0 nM
# [7] = molecular target: Sodium/potassium-transporting ATPase (Homo sapiens) (UniProt P05023+P14415+P05026+P50993+P54709+P13637+Q13733+P54710); experiment: ATPase (Na+/K+) CEREP ligand profiling; type: protein-complex assay; conditions: Compound concentration 10.0 uM
# [8] = molecular target: STE20-like serine/threonine-protein kinase (Homo sapiens) (UniProt Q9H2G2); conditions: Compound concentration 1000.0 nM
# [9] = molecular target: Carbonic anhydrase 2 (Homo sapiens) (UniProt P00918); experiment: Carbonic anhydrase II (h) CEREP ligand profiling; conditions: Compound concentration 10.0 uM
# [10] = molecular target: Bone morphogenetic protein receptor type-1B (Homo sapiens) (UniProt O00238); conditions: Compound concentration 1000.0 nM
# [11] = molecular target: Dual specificity mitogen-activated protein kinase kinase 7 (Homo sapiens) (UniProt O14733); conditions: Compound concentration 1000.0 nM
# [12] = molecular target: Serine/threonine-protein kinase DCLK3 (Homo sapiens) (UniProt Q9C098); conditions: Compound concentration 1000.0 nM
# [13] = molecular target: T1, Muscarinic acetylcholine receptor M1 (Homo sapiens) (UniProt P11229); experiment: M1 (h) CEREP ligand profiling; conditions: Compound concentration 10.0 uM
# T1 sequence (whole entry): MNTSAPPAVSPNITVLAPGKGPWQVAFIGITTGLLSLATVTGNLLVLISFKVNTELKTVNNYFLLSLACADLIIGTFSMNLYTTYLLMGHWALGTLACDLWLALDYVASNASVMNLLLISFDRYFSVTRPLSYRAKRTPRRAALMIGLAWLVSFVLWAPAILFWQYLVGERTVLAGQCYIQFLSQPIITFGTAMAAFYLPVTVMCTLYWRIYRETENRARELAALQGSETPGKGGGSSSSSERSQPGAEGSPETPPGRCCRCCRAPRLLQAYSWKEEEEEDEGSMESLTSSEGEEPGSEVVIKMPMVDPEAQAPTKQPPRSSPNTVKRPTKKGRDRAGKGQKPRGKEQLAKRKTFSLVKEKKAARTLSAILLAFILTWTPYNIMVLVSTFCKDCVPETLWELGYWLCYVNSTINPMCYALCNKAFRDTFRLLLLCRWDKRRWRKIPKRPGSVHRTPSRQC
# [14] = molecular target: Muscarinic acetylcholine receptor M3 (Homo sapiens) (UniProt P20309); experiment: M3 (h) CEREP ligand profiling; conditions: Compound concentration 10.0 uM
# [15] = molecular target: Voltage-gated L-type calcium channel (diltiazem site) (Homo sapiens, UniProt O60840+Q01668+Q13698+Q13936); experiment: Ca2+ channel (L, diltiazem site) CEREP ligand profiling; type: protein assay; conditions: compound concentration 10 uM
# [16] = molecular target: Serine/threonine-protein kinase TAO3 (Homo sapiens) (UniProt Q9H2K8); conditions: Compound concentration 1000.0 nM
# [17] = molecular target: Ephrin type-A receptor 5 (Homo sapiens) (UniProt P54756); conditions: Compound concentration 1000.0 nM
# [18] = molecular target: Mitogen-activated protein kinase kinase kinase 14 (Homo sapiens) (UniProt Q99558); conditions: Compound concentration 1000.0 nM
# [19] = molecular target: Neuropeptide Y receptor type 1 (Homo sapiens) (UniProt P25929); experiment: Y1 (h) CEREP ligand profiling; conditions: Compound concentration 10.0 uM
# [20] = molecular target: Acetylcholinesterase (Homo sapiens) (UniProt P22303); experiment: Acetylcholinesterase (h) CEREP ligand profiling; conditions: Compound concentration 10.0 uM
# [21] = molecular target: Tyrosine-protein kinase JAK1 (Homo sapiens) (UniProt P23458); conditions: Compound concentration 1000.0 nM
# [22] = molecular target: D(2) dopamine receptor (Homo sapiens) (UniProt P14416); experiment: D2S (h) (agonist site) CEREP ligand profiling; conditions: Compound concentration 10.0 uM
# [23] = molecular target: Substance-P receptor (Homo sapiens) (UniProt P25103); experiment: NK1 (h) CEREP ligand profiling; conditions: Compound concentration 10.0 uM
# [24] = molecular target: Serine/threonine-protein kinase WNK3 (Homo sapiens) (UniProt Q9BYP7); conditions: Compound concentration 1000.0 nM
# [25] = molecular target: GABA-A receptor; anion channel (Homo sapiens) (UniProt P14867+P47870+P18507+P28472+P48169+Q99928+Q9UN88+P34903+O00591+O14764+Q8N1C3+P18505+P78334+P47869+P31644+Q16445); experiment: GABAA BZD (central) CEREP ligand profiling; type: protein-complex assay; conditions: Compound concentration 10.0 uM
# [26] = molecular target: Serine/threonine-protein kinase D1 (Homo sapiens) (UniProt Q15139); conditions: Compound concentration 1000.0 nM
# [27] = molecular target: Activin receptor type-1-like (Homo sapiens) (UniProt P37023); conditions: Compound concentration 1000.0 nM
# [28] = molecular target: Tyrosine-protein kinase receptor Tie-1 (Homo sapiens) (UniProt P35590); conditions: Compound concentration 1000.0 nM
# [29] = molecular target: Glutamate [NMDA] receptor (Homo sapiens) (UniProt Q05586+Q12879+Q13224+O15399+O60391+Q14957+Q8TCU5); experiment: NMDA CEREP ligand profiling; type: protein-complex assay; conditions: Compound concentration 10.0 uM
# [30] = molecular target: Beta-adrenergic receptor kinase 1 (Homo sapiens) (UniProt P25098); conditions: Compound concentration 1000.0 nM
# Phosphodiesterase 3 = Phosphodiesterase 3 (Homo sapiens, UniProt Q14432+Q13370); experiment: PDE3 (h) CEREP ligand profiling; type: protein assay
# [31] = molecular target: Sodium-dependent serotonin transporter (Homo sapiens) (UniProt P31645); experiment: 5-HT transporter (h) CEREP ligand profiling; conditions: Compound concentration 10.0 uM
# [32] = molecular target: Bone morphogenetic protein receptor type-2 (Homo sapiens) (UniProt Q13873); conditions: Compound concentration 1000.0 nM
# [33] = molecular target: Mitogen-activated protein kinase 8 (Homo sapiens) (UniProt P45983); conditions: Compound concentration 1000.0 nM
# CYP2C19 = CYP2C19 (Homo sapiens, UniProt P33261); experiment: CYP2C19 inhibition CEREP ligand profiling; conditions: compound concentration 10 uM
# Sequence of Receptor-interacting serine/threonine-protein kinase 4 (Homo sapiens) (P57078 whole entry): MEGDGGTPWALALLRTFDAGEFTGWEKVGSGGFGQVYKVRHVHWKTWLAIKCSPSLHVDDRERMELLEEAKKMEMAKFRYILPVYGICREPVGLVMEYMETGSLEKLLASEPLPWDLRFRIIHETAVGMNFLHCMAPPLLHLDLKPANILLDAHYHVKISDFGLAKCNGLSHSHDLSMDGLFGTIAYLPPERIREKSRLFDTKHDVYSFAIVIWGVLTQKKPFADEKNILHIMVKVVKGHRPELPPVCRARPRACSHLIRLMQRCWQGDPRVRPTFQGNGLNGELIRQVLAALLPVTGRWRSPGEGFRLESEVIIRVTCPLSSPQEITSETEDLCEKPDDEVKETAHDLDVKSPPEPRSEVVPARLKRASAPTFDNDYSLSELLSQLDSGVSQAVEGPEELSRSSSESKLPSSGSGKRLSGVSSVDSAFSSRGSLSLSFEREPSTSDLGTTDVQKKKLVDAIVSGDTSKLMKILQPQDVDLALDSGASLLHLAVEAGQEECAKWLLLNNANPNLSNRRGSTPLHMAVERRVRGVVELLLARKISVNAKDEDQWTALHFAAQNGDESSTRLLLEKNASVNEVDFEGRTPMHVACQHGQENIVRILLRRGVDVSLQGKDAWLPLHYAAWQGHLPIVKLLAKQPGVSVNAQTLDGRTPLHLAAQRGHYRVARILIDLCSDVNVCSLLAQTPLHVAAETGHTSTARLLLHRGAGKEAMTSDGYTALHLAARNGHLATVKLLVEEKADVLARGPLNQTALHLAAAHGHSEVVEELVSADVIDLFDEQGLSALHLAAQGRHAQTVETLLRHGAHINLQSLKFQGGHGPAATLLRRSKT
# Sequence of D(2) dopamine receptor (Homo sapiens) (P14416 whole entry): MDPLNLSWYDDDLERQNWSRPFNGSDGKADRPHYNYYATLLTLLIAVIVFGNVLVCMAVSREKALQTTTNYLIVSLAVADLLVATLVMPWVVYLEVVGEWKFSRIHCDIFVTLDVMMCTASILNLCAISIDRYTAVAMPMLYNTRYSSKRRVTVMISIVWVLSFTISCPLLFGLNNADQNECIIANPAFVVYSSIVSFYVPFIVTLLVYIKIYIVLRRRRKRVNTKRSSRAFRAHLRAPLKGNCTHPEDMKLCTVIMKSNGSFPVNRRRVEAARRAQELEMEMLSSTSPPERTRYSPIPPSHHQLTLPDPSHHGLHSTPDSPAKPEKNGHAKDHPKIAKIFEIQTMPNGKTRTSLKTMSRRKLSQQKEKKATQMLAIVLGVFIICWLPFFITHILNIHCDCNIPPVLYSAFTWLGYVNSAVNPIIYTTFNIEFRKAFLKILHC
# Sequence of Mitogen-activated protein kinase 8 (Homo sapiens) (P45983 whole entry): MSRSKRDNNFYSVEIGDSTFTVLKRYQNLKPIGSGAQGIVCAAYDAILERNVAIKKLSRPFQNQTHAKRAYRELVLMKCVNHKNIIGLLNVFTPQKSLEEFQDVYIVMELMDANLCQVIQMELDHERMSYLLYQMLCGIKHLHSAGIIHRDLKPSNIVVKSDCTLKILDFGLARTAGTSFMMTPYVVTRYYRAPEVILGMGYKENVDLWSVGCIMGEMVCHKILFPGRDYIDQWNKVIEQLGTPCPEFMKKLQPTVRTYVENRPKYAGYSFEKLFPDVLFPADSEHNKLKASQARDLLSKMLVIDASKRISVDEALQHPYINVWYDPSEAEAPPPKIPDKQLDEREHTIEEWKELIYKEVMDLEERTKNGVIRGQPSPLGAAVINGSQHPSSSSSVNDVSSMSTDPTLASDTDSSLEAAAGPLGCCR
# Sequence of Cholecystokinin receptor type A (Homo sapiens) (P32238 whole entry): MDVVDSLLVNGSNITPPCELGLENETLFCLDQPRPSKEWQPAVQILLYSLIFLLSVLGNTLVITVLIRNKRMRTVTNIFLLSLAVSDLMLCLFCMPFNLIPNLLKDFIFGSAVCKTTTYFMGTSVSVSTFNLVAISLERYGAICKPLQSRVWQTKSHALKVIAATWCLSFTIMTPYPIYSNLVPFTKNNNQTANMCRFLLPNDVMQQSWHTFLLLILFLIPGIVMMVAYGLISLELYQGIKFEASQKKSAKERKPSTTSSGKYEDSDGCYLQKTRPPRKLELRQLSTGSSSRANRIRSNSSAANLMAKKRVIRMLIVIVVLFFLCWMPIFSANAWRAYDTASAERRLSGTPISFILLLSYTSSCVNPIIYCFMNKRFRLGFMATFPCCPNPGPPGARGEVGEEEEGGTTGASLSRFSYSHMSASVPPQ
# Sequence of Muscarinic acetylcholine receptor M3 (Homo sapiens) (P20309 whole entry, looked up): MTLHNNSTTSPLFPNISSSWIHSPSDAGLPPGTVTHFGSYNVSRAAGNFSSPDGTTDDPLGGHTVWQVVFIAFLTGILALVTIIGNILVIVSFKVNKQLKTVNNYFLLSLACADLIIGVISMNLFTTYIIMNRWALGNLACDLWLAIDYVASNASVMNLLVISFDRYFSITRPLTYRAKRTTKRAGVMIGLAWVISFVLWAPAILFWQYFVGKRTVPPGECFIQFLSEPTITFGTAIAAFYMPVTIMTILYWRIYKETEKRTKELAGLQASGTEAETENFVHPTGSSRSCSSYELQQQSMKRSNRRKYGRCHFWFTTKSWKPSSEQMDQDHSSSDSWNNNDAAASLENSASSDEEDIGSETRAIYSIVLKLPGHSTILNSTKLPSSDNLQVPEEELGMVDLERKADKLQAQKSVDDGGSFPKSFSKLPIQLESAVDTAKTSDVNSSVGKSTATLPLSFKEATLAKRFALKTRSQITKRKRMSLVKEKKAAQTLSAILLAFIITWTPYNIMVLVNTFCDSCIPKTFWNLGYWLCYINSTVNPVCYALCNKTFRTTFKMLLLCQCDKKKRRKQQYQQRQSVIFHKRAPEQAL
# Sequence of Activin receptor type-1-like (Homo sapiens) (P37023 whole entry): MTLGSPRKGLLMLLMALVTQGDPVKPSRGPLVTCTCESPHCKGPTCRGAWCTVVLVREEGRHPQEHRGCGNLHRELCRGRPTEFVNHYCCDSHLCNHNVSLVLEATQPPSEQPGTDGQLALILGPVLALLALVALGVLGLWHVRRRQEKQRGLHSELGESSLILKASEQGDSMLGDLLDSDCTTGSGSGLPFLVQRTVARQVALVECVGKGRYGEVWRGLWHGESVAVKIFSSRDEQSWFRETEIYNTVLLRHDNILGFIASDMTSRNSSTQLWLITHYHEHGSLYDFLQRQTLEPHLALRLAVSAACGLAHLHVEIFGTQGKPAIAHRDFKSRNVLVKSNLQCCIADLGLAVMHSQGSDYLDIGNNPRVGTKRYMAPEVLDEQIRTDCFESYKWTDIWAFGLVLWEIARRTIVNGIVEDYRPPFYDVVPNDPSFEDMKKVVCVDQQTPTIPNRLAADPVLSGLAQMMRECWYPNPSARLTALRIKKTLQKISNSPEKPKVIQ
# Sequence of Calcium/calmodulin-dependent protein kinase type IV (Homo sapiens) (Q16566 whole entry): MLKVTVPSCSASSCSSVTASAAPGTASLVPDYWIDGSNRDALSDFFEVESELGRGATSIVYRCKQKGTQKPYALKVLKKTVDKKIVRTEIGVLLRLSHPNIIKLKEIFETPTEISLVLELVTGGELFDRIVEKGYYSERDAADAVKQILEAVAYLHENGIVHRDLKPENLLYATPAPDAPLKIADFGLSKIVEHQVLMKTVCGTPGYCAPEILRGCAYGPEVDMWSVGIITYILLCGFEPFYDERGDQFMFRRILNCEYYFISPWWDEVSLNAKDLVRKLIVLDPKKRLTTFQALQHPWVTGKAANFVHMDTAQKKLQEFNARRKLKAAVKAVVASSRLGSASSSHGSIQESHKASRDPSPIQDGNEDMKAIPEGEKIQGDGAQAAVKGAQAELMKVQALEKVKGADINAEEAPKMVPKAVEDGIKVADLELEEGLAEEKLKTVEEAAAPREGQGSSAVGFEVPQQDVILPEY
# Sequence of Mitogen-activated protein kinase kinase kinase 14 (Homo sapiens) (Q99558 whole entry, looked up): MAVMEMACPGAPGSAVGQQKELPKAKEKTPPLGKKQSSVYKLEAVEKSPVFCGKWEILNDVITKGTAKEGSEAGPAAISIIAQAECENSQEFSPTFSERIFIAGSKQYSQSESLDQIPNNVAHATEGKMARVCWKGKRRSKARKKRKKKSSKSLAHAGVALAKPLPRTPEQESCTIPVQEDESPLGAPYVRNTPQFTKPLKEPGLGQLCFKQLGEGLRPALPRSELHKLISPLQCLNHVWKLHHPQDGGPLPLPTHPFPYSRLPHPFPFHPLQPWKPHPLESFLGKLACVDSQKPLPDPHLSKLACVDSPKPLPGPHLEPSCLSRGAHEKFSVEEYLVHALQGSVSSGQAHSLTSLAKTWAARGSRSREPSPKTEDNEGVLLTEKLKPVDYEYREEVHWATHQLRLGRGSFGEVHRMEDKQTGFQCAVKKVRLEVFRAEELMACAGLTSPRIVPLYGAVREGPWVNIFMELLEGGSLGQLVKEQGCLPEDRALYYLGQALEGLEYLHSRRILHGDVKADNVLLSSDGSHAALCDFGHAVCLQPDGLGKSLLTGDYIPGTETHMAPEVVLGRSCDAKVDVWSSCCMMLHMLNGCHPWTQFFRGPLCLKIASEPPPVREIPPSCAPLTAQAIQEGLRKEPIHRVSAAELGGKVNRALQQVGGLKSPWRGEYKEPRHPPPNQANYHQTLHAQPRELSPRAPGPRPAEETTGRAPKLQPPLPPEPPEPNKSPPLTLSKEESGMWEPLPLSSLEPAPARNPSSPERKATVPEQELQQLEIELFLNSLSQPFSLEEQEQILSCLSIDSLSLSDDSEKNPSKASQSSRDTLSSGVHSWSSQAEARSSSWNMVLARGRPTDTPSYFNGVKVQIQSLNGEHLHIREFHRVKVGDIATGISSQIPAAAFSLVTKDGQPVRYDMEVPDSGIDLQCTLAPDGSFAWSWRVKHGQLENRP
# Sequence of Growth hormone secretagogue receptor type 1 (Homo sapiens) (Q92847 whole entry): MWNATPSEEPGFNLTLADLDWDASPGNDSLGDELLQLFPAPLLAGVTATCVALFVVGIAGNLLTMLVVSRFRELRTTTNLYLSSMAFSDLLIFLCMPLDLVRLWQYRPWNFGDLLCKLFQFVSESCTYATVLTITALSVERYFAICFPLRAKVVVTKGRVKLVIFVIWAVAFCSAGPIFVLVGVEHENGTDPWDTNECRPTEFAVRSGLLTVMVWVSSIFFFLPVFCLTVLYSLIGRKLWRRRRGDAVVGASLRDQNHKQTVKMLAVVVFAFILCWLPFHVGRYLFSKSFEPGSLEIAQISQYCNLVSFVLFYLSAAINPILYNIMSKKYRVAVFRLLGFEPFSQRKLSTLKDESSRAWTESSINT
smiles,measurement,setting,value
COc1ccc2cc(OCC3(C(=O)O)CN(C(=O)c4ccc(F)cc4)C3)ccc2c1 [PF-04418948],inhibition,[1],29%
same,inhibition at 10 µM,CYP2D6,18% (not active)
same,inhibition,[2],-6%
same,residual activity,[3],88%
same,residual activity,[4],79%
same,residual activity,[5],66%
same,residual activity,[6],79%
same,inhibition,[7],5%
same,residual activity,[8],85%
same,inhibition,[9],9%
same,residual activity,[10],95%
same,residual activity,[11],79%
same,residual activity,[12],98%
same,inhibition,[13],9%
same,inhibition,[14],1%
same,inhibition at 10 µM,[15],6% (not active)
same,residual activity,[16],35%
same,residual activity,[17],78%
same,residual activity,[18],82%
same,inhibition,[19],1%
same,inhibition,[20],45%
same,residual activity,[21],96%
same,inhibition,[22],-6%
same,inhibition,[23],3%
same,residual activity,[24],93%
same,inhibition,[25],10%
same,residual activity,[26],96%
same,residual activity,[27],93%
same,residual activity,[28],100%
same,inhibition,[29],1%
same,residual activity,[30],72%
same,IC50,Phosphodiesterase 3,3.5 µM
same,inhibition,Phosphodiesterase 3; Compound concentration 10.0 uM,78%
same,inhibition,[31],-8%
same,residual activity,[32],87%
same,residual activity,[33],76%
same,inhibition at 10 µM,CYP2C19,5% (not active)

# Reference: ChEMBL document CHEMBL4507298 (2021)
